Results as given in ChEMBL document CHEMBL5137030 (Eur J Med Chem, 2022).
Activity calls are given as the source filed them. The rule behind the calls is not given here.

Key:
[1] = system: Human alphaherpesvirus 1; assay: (§1) Antiviral activity against HSV-1 infected in African green monkey Vero cells assessed as inhibition of viral replication by measuring log suppression of virus-induced cytopathic effect at 1 uM incubated for 1 hr followed by washing with PBS and subsequent treatment with compound for 24 hrs by plaque assay; assay type: functional; conditions: time 25 hrs
[2] = system: Human alphaherpesvirus 1; assay: Antiviral activity against HSV-1 infected in African green monkey Vero cells assessed as inhibition of viral replication incubated for 1 hr followed by washing with PBS and subsequent treatment with compound for 24 hrs by plaque reduction assay; assay type: functional, organism-based; conditions: Human alphaherpesvirus 1, Vero
[3] = system: Vero; assay: Cytotoxicity against African green monkey Vero cells assessed as reduction in cell viability incubated for 24 hrs by MTS assay; conditions: chlorocebus sabaeus
[4] = system: Human alphaherpesvirus 2; assay: Antiviral activity against HSV-2 infected in African green monkey Vero cells assessed as inhibition of viral replication incubated for 1 hr followed by washing with PBS and subsequent treatment with compound for 24 hrs by plaque reduction assay; assay type: functional, organism-based; conditions: Human alphaherpesvirus 2, Vero
[5] = system: Human alphaherpesvirus 2; assay: Antiviral activity against wild-type HSV-2 186 infected in African green monkey Vero cells assessed as inhibition of viral replication incubated for 1 hr followed by washing with PBS and subsequent treatment with compound for 24 hrs by plaque reduction assay; assay type: functional, organism-based; conditions: Human alphaherpesvirus 2, 186, Vero
[6] = system: Human alphaherpesvirus 2; assay: as §1, with “against HSV-2” for “against HSV-1”, “at 5” for “at 1”; assay type: functional; conditions: time 25 hrs
[7] = Cytotoxicity against human HepDES19 cells assessed as reduction in cell viability incubated for 72 hrs by MTS assay; assay type: toxicity, cell-based; conditions: hepdes19, 72 h
[8] = system: Human alphaherpesvirus 2; assay: as §1, with “HSV-2” for “HSV-1”; assay type: functional; conditions: time 25 hrs
[9] = system: Human alphaherpesvirus 2; assay: Antiviral activity against thymidine kinase-deficient ACV-resistant HSV-2 186 TKdeltakpn infected in African green monkey Vero cells assessed as inhibition of viral replication incubated for 1 hr followed by washing with PBS and subsequent treatment with compound for 24 hrs by plaque reduction assay; assay type: functional, organism-based; conditions: Human alphaherpesvirus 2, 186 TKdeltakpn
[10] = system: Human alphaherpesvirus 1; assay: as §1, with “at 5” for “at 1”; assay type: functional; conditions: time 25 hrs
[11] = Half life in mouse liver microsomes at 2 uM in presence of NADPH by LC/MS/MS analysis; assay type: ADME, Microsome
[12] = Apparent permeability of the compound across apical to basolateral side in human Caco-2 cells at 10 uM incubated for 2 hrs; assay type: ADME, cell-based; conditions: caco-2, 2 h
[13] = Oral bioavailability in BALB/c mouse at 3 mg/kg by LC/MS/MS analysis; assay type: ADME, organism-based; conditions: in vivo
[14] = Half life in human liver microsomes at 2 uM in presence of NADPH by LC/MS/MS analysis; assay type: ADME, Microsome
[15] = system: Human alphaherpesvirus 2; assay: Antiviral activity against HSV-2 333vhsB infected in African green monkey Vero cells assessed as inhibition of viral replication by measuring reduction in virus-induced cytopathic effect at 50 uM incubated for 20 hrs by colorimetric analysis; assay type: functional, organism-based
[16] = Half-life in BALB/c mouse at 3 mg/kg, po and 1 mg/kg, iv by LC/MS/MS analysis; assay type: ADME, organism-based; conditions: in vivo

With Cc1cc(C2CCCCC2)n(O)c(=O)c1 [CICLOPIROX] the “log(activity)” value [1] was 1.66, the EC50 [2] was 270 nM and the CC50 [3] was > 100000 nM. The EC50 [4] was 500 nM, the EC50 [5] was < 300 nM and the “log(activity)” value [6] was 5.5. The CC50 [7] was 13000 nM, the “log(activity)” value [8] was 2.6 and the EC50 [9] was < 300 nM. For the same compound, the “log(activity)” value [10] was 4.62.

In the case of Cc1cc(Cc2ccc(-c3ccccc3)cc2)n(O)c(=O)c1, the “log(activity)” value [1] is reported as 4.37, the EC50 [2] is reported as 210 nM and the t1/2 [11] is reported as < 5 min. For the same compound, the EC50 [4] was 140 nM, the EC50 [5] was < 300 nM and the Papp [12] was 1.35 10^-6 cm/s. The bioavailability [13] was 10%, the “log(activity)” value [6] was 4.6 and the t1/2 [14] was < 5 min. For the same compound, the Activity [15] was “Active”, the CC50 [7] was 12000 nM and the “log(activity)” value [8] was 3.09. The t1/2 [16] was < 60 min, the EC50 [9] was < 300 nM and the “log(activity)” value [10] was 4.74.

In the case of O=c1cc(-c2ccccc2)cc(C2CCCCC2)n1O, the “log(activity)” value [1] is reported as 3.43, the t1/2 [11] is reported as < 5 min and the EC50 [4] is reported as 290 nM. For the same compound, the EC50 [5] was < 300 nM, the Papp [12] was 4.33 10^-6 cm/s and the bioavailability [13] was 10%. The “log(activity)” value [6] was 4.08, the t1/2 [14] was < 5 min and the Activity [15] was “Active”. For the same compound, the CC50 [7] was 20000 nM, the “log(activity)” value [8] was 3.73 and the t1/2 [16] was < 60 min. For the same compound, the EC50 [9] was < 300 nM and the “log(activity)” value [10] was 5.37.

For COc1cccc(Cc2cc(C)cc(=O)n2O)c1, the t1/2 [11] was 15 min, the CC50 [3] was > 100000 nM and the EC50 [4] was 270 nM. The Papp [12] was 2.43 10^-7 cm/s, the “log(activity)” value [6] was 4.57 and the t1/2 [14] was 19 min. The Activity [15] was “Active”, the CC50 [7] was 60000 nM and the “log(activity)” value [8] was 2.15.

With Cc1cc(Cc2ccccc2)n(O)c(=O)c1 the “log(activity)” value [1] was 1.07, the t1/2 [11] was < 5 min and the CC50 [3] was > 100000 nM. The EC50 [4] was 230 nM, the Papp [12] was 1.44 10^-5cm/s and the “log(activity)” value [6] was 5.79. For the same compound, the t1/2 [14] was 6 min, the Activity [15] was “Active” and the CC50 [7] was 42000 nM. For the same compound, the “log(activity)” value [8] was 1.59 and the “log(activity)” value [10] was 4.71.

For Cc1cc(Cc2cccc3ccccc23)n(O)c(=O)c1, the “log(activity)” value [1] was 2.99, the t1/2 [11] was < 5 min and the CC50 [3] was 93100 nM. For the same compound, the EC50 [4] was 220 nM, the EC50 [5] was < 300 nM and the Papp [12] was 6.46 10^-6 cm/s. The bioavailability [13] was 10%, the “log(activity)” value [6] was 4.33 and the t1/2 [14] was < 5 min. The Activity [15] was “Active”, the CC50 [7] was 25000 nM and the “log(activity)” value [8] was 3.12. The t1/2 [16] was < 60 min, the EC50 [9] was < 300 nM and the “log(activity)” value [10] was 4.81.
